Source: ChEMBL document CHEMBL5291721, “A preclinical secondary pharmacology resource illuminates target-adverse drug reaction associations of marketed drugs” (Nat Commun, 2023)

Experiments:
[1] = target: Voltage-gated inwardly rectifying potassium channel KCNH2 (Homo sapiens, UniProt Q12809); assay type: functional
D(1A) dopamine receptor = D(1A) dopamine receptor (Homo sapiens, UniProt P21728)
[2] = target: 5-hydroxytryptamine receptor 2B (Homo sapiens, UniProt P41595); assay type: functional, cell-based
[3] = target: 3',5'-cyclic-AMP phosphodiesterase 4A (Homo sapiens, UniProt P27815); assay type: functional
[4] = target: Prostaglandin G/H synthase 1 (Homo sapiens, UniProt P23219); assay type: functional
[5] = target: T1, Muscarinic acetylcholine receptor M2 (Homo sapiens, UniProt P08172)
T1 sequence (P08172 whole entry): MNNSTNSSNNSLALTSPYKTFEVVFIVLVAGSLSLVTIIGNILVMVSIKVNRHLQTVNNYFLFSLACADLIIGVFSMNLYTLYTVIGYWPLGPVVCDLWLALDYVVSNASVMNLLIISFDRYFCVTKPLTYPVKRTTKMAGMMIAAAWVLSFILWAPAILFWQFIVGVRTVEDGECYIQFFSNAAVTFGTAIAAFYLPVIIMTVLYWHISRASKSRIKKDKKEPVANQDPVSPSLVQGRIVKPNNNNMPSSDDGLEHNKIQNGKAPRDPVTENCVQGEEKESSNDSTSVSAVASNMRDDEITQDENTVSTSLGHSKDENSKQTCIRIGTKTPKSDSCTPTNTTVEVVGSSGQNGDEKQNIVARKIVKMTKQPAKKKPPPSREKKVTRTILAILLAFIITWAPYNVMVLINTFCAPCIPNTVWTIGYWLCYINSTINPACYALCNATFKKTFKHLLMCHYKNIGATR

Progesterone receptor = target: T2, Progesterone receptor (Homo sapiens, UniProt P06401)
T2 sequence (P06401 whole entry): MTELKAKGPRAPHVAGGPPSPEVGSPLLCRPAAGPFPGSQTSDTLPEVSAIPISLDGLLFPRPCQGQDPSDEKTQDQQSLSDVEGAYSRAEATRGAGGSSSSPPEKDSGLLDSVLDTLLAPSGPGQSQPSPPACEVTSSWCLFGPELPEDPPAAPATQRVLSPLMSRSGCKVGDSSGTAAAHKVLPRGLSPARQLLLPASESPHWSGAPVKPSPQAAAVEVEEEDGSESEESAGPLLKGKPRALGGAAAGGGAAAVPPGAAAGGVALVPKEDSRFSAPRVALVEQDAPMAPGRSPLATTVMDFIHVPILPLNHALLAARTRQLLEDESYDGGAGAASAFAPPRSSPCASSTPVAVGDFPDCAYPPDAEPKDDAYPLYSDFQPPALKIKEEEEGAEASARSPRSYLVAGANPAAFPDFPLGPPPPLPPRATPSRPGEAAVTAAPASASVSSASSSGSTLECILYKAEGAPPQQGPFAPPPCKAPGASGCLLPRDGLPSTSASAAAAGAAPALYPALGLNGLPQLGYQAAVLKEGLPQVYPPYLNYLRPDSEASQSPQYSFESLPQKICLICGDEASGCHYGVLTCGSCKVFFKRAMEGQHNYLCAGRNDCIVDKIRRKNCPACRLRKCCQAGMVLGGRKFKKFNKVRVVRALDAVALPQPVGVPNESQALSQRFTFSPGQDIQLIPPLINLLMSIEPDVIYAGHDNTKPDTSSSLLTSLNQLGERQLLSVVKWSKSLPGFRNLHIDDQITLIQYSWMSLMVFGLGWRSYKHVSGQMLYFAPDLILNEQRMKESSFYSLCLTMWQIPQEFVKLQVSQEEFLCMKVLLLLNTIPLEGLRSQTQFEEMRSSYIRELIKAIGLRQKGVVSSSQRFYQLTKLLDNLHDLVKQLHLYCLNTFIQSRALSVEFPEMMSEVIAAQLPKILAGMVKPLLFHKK

Acetylcholinesterase = Acetylcholinesterase (Homo sapiens, UniProt P22303); assay type: functional
Prothrombin = Prothrombin (Homo sapiens, UniProt P00734); assay type: functional
[6] = target: cGMP-inhibited 3',5'-cyclic phosphodiesterase 3A (Homo sapiens, UniProt Q14432); assay type: functional
[7] = target: T3, Alpha-2A adrenergic receptor (Homo sapiens, UniProt P08913)
T3 sequence (P08913 whole entry): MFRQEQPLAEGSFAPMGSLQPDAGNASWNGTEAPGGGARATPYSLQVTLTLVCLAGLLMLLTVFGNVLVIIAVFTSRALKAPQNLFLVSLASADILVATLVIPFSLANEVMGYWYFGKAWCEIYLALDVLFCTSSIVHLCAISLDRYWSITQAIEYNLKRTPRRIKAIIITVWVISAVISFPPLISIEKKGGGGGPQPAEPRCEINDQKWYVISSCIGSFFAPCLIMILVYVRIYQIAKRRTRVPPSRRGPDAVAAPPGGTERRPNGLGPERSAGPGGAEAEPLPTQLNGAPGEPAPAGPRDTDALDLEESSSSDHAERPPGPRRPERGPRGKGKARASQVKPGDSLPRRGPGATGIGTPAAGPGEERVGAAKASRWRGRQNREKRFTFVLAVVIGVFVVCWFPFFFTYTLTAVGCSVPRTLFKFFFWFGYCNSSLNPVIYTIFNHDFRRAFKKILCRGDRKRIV

Histamine H3 receptor = Histamine H3 receptor (Homo sapiens, UniProt Q9Y5N1)
Mu-type opioid receptor = Mu-type opioid receptor (Homo sapiens, UniProt P35372)
[8] = target: Sodium-dependent dopamine transporter (Homo sapiens, UniProt Q01959)
Further: assay procedure not described here.

D(1A) dopamine receptor, sequence (P21728 whole entry): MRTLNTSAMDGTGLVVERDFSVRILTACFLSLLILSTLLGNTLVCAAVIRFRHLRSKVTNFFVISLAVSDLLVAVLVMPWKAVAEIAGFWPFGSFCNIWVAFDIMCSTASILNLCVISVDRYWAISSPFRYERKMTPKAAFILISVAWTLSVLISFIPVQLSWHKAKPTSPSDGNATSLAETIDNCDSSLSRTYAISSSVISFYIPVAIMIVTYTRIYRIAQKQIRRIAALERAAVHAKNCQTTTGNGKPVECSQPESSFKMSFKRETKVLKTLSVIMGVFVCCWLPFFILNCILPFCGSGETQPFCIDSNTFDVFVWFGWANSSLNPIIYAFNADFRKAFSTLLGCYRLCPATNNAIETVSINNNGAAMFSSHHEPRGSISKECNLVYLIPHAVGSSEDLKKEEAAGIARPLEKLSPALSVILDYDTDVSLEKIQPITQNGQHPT
Voltage-gated inwardly rectifying potassium channel KCNH2, sequence (Q12809 whole entry): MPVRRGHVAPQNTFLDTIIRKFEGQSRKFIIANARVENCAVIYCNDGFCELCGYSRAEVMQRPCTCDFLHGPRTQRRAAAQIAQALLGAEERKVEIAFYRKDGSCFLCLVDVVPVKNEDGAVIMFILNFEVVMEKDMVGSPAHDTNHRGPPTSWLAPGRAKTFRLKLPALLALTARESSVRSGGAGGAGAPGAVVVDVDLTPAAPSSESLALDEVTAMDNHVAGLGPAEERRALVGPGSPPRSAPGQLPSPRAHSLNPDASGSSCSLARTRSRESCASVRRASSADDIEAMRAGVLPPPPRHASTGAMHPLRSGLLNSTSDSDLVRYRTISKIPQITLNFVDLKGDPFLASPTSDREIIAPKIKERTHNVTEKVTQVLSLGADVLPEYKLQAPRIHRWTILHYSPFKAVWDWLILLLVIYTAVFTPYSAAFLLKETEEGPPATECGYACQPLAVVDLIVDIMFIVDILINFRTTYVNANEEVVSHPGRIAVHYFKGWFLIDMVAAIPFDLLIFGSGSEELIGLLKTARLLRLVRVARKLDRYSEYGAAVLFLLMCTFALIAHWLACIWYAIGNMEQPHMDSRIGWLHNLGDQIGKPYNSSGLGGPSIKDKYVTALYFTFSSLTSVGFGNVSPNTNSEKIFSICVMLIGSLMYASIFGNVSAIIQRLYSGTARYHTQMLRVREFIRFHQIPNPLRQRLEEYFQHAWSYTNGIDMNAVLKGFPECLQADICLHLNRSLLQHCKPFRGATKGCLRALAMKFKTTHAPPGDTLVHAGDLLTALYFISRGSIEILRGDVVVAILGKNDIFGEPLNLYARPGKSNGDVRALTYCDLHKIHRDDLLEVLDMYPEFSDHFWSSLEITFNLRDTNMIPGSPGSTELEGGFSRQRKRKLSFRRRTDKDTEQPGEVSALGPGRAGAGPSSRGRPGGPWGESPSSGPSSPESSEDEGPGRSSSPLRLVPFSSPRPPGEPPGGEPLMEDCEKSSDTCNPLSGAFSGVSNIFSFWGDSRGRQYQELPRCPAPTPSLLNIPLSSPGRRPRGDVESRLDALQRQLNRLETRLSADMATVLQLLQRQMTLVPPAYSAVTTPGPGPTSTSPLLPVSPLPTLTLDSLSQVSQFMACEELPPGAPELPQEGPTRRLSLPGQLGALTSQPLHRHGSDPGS
3',5'-cyclic-AMP phosphodiesterase 4A, sequence (P27815 whole entry): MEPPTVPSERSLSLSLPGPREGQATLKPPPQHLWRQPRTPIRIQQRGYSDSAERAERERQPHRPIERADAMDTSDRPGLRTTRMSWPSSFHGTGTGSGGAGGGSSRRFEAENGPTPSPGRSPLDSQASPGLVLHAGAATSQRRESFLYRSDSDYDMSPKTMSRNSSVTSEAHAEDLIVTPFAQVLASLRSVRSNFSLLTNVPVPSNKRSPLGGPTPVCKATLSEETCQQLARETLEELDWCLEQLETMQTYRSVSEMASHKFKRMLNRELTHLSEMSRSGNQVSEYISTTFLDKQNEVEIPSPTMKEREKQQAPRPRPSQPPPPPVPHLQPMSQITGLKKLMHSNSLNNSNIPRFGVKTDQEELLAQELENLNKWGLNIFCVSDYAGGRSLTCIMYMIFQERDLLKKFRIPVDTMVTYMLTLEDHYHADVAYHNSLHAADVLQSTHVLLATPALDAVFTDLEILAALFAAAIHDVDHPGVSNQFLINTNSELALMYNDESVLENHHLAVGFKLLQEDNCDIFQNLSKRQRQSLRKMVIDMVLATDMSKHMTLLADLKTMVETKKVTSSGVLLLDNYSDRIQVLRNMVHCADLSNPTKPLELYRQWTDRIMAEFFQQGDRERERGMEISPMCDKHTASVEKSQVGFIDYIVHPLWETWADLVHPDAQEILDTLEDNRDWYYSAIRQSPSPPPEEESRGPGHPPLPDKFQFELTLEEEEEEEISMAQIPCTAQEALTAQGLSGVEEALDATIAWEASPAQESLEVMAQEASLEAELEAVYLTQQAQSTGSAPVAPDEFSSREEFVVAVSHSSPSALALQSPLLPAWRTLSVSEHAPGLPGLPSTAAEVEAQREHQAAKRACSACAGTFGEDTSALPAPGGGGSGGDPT
Histamine H3 receptor, sequence (Q9Y5N1 whole entry): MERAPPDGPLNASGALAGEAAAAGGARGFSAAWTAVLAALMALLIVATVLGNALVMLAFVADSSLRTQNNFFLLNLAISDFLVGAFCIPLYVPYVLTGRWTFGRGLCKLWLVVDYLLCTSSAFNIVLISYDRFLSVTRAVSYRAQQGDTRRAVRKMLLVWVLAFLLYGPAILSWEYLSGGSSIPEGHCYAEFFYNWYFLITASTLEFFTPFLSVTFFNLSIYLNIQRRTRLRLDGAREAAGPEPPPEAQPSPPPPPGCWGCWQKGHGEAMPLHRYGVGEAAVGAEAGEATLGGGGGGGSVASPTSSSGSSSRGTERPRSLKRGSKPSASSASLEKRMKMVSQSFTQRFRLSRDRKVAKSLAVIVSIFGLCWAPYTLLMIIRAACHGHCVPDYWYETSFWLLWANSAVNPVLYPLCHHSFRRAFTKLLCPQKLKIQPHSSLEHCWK
Sodium-dependent dopamine transporter, sequence (Q01959 whole entry): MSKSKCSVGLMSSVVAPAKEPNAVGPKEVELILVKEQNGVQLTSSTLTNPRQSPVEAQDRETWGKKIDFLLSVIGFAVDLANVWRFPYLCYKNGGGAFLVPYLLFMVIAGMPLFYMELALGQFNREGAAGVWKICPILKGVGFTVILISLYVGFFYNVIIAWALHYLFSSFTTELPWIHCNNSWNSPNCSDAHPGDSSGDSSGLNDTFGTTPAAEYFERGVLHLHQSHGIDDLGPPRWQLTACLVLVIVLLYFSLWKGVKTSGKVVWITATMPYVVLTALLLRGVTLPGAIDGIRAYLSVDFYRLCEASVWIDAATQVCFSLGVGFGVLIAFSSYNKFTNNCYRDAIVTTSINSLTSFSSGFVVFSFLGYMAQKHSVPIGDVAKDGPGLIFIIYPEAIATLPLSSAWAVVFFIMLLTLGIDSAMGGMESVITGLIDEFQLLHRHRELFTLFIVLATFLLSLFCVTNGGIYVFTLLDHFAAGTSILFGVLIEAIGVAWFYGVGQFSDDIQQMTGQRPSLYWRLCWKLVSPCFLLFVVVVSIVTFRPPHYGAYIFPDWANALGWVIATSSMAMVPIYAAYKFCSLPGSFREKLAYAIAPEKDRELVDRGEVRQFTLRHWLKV
Acetylcholinesterase, sequence (P22303 whole entry): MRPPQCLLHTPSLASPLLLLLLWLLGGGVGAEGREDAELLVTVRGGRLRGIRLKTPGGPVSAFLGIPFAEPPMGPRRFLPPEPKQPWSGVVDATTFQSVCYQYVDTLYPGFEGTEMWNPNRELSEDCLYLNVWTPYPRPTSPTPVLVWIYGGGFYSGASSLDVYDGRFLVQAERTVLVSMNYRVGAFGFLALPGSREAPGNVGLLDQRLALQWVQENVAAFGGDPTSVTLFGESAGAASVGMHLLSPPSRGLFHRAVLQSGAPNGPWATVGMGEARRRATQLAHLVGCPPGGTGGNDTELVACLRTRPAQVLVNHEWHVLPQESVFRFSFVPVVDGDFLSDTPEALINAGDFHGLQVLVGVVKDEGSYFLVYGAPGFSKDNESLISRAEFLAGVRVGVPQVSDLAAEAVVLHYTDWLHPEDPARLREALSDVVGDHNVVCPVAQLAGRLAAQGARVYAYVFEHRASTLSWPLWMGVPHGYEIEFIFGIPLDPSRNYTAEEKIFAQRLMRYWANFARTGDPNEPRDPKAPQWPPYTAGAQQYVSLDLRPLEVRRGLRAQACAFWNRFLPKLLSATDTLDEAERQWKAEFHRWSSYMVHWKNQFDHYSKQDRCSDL
Prostaglandin G/H synthase 1, sequence (P23219 whole entry): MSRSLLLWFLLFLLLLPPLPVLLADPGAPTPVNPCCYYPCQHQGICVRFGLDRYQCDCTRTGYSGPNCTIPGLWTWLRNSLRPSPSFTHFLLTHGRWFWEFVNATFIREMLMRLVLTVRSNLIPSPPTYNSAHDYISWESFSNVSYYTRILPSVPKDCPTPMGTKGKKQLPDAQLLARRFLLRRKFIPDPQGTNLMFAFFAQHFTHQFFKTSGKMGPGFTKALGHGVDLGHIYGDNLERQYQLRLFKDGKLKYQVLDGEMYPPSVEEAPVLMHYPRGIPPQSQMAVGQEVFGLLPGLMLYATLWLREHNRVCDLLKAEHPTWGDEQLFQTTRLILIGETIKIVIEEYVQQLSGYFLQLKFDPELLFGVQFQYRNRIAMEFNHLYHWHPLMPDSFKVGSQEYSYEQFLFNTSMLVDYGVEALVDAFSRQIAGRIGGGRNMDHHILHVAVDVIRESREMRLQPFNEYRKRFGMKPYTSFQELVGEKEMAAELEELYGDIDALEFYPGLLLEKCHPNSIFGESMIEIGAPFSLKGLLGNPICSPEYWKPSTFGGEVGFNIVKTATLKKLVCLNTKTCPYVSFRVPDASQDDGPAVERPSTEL

CNC[C@H](O)c1ccc(O)c(O)c1 [EPINEPHRINE]
AC50 [1]: > 30 µM

Cc1onc(-c2c(F)cccc2Cl)c1C(=O)N[C@@H]1C(=O)N2[C@@H]1SC(C)(C)[C@@H]2C(=O)O [FLOXACILLIN]
AC50 [1]: > 30 µM

C#C[C@]1(O)C=C[C@H]2[C@@H]3CCC4=CC(=O)CC[C@@H]4[C@H]3CC[C@@]21CC [GESTODENE]
AC50 (D(1A) dopamine receptor): > 30 µM
AC50 [2]: > 30 µM
AC50 [3]: > 30 µM
AC50 [4]: > 30 µM
AC50 [5]: > 30 µM
AC50 (Progesterone receptor): 0.003 µM
AC50 (Acetylcholinesterase): > 30 µM
AC50 (Prothrombin): > 30 µM
AC50 [6]: > 30 µM
AC50 [7]: > 30 µM
AC50 (Histamine H3 receptor): > 30 µM
AC50 (Mu-type opioid receptor): 14.9 µM
AC50 [8]: > 30 µM

CC[C@@H](CO)NC(=O)[C@@H]1C=C2c3cccc4c3c(cn4C)C[C@H]2N(C)C1 [METHYSERGIDE]
AC50 [1]: > 30 µM

CNC(=C[N+](=O)[O-])NCCSCc1csc(CN(C)C)n1 [NIZATIDINE]
AC50 [1]: > 30 µM

CN1Cc2c(N)cccc2C(c2ccccc2)C1 (stereo not given) [NOMIFENSINE]
AC50 [1]: 4.8 µM

CC(CN1c2ccccc2Sc2ccccc21)N(C)C (stereo not given) [PROMETHAZINE]
AC50 (D(1A) dopamine receptor): 1.72 µM
AC50 [2]: > 30 µM
AC50 [3]: > 30 µM
AC50 [4]: > 30 µM
AC50 [5]: 0.03 µM
AC50 (Progesterone receptor): > 30 µM
AC50 (Acetylcholinesterase): > 30 µM
AC50 (Prothrombin): > 30 µM
AC50 [6]: > 30 µM
AC50 (Histamine H3 receptor): > 30 µM
AC50 [1]: 0.922 µM
AC50 [8]: > 30 µM

CCCc1cc(=O)[nH]c(=S)[nH]1 [PROPYLTHIOURACIL]
AC50 [1]: > 30 µM

Cn1cc(C(=O)[C@@H]2CCc3nc[nH]c3C2)c2ccccc21 [RAMOSETRON]
AC50 [1]: 4.7 µM

CN(CCOc1ccc(CC2SC(=O)NC2=O)cc1)c1ccccn1 (stereo not given) [ROSIGLITAZONE]
AC50 [1]: 13 µM

S=P(N1CC1)(N1CC1)N1CC1 [THIOTEPA]
AC50 [1]: 9.6 µM

CC(C)C[C@H](NC(=O)[C@@H](O)[C@H](N)Cc1ccccc1)C(=O)O [UBENIMEX]
AC50 (D(1A) dopamine receptor): > 30 µM
AC50 [2]: > 30 µM
AC50 [3]: > 30 µM
AC50 [4]: > 30 µM
AC50 [5]: > 30 µM
AC50 (Progesterone receptor): > 30 µM
AC50 (Acetylcholinesterase): > 30 µM
AC50 (Prothrombin): > 30 µM
AC50 [6]: > 30 µM
AC50 [7]: > 30 µM
AC50 (Histamine H3 receptor): > 30 µM
AC50 (Mu-type opioid receptor): > 30 µM
AC50 [1]: > 30 µM
AC50 [8]: > 30 µM

CC(C)[C@H](N)C(=O)OCCOCn1cnc2c(=O)[nH]c(N)nc21 [VALACYCLOVIR]
AC50 [1]: > 30 µM

COc1cc(C(=O)NS(=O)(=O)c2ccccc2C)ccc1Cc1cn(C)c2ccc(NC(=O)OC3CCCC3)cc12 [ZAFIRLUKAST]
AC50 [1]: > 30 µM
